Where “and” joins values, the source holds several entries; their conditions need not be identical. Identical values can stand only once. Entries after “also recorded” stand apart in the source; their conditions may differ. Like-named read-outs stand apart in the source and are kept apart here.
How the values were obtained:
[1] = molecular target: recombinant mouse sEH (MsEH) (Mus musculus (Mouse), UniProt P34914); experiment: Spectrophotometric sEH inhibition assay (NEP2C substrate), recombinant mouse sEH; format: biochemical
Experimental: (§1) Recombinant mouse sEH (MsEH) and human sEH (HsEH) were produced in a baculovirus expression system as previously reported. […] The expressed proteins were purified from cell lysate by affinity chromatography. […] Protein concentration was quantified using the Pierce BCA assay using bovine serum albumin as the calibrating standard.
(§2) The mixture was incubated at 30° C. for 5 minutes. […] Assays were performed in quadruplicate.

Human sEH (HsEH) = Human sEH (HsEH) (Homo sapiens (Human), UniProt P34913); experiment: Spectrophotometric sEH inhibition assay (NEP2C substrate), recombinant human sEH; format: biochemical
Experimental: as §1, §2

[2] = system: SHR (spontaneously hypertensive rat); experiment: Systolic blood pressure by tail cuff in SHR; format: in vivo; settings: for effect on blood pressure in the SHR: dose equimolar to 3 mg/kg DCU; for decrease in systolic blood pressure 6 hr after the dose / time by which blood pressure returned to baseline after the dose: single dose 3 mg/kg DCU or equimolar
Source text: Animals. Male SHR and WKY rats 3-13 wks of age were purchased from Charles River Laboratories (Wilmington, Mass.) and housed in a controlled environment with 12 hr light/dark cycles and fed standard laboratory chow for □ 3 days before euthanasia. All animal use was approved by the University of California San Francisco Committee on Animal Research and followed the National Institutes of Health guidelines for the care and use of laboratory animals. For isolation of kidney subcellular fractions, rats were anesthetized with methoxyflurane, the abdominal cavities were opened, and the kidneys were perfused with ice-cold saline. Perfused kidneys were rapidly removed, the cortex and medulla dissected out and immersed in liquid nitrogen. All tissue was stored at −80° C. until preparation of microsomes. In some cases WKY and SHR rats were housed in metabolic cages for up to three days and urine was collected over triphenylphosphine in 24 hr intervals. The urine volume was noted and aliquots were stored at −80° C. prior to extraction and quantitation of DHETs and EETs. […] Systolic blood pressure was measured at room temperature by a photoelectric tail cuff system (Model 179, IITC, Inc., Woodland Hills, Calif.) for up to four days following the dose of inhibitor. Blood pressures are reported as the average of three separate readings over a 30 min period. […] Similar inhibition studies were carried out with equimolar doses of N-cyclohexyl-N′-dodecylurea, N-cyclohexyl-N′-ethylurea and dodecylaamine.

Swiss Webster mice = experiment: Leukotoxin/isoleukotoxin-induced death in mice; format: in vivo, mouse; settings: pretreatment 400 mg/kg i.p. in corn oil, 30 minutes before leukotoxin/isoleukotoxin methyl esters 700 mg/kg i.v.
Experimental: Male Swiss Webster mice (25-28 g) were purchased from Simonsen, Gilroy, Calif. The animals had free access to water and food. […] After 30 minutes of the pretreatment, the mice were treated intravenously through the tail vein with a 1:1 mixture of leukotoxin/isoleukotoxin methyl esters in ethanol (700 mg/kg, 1.0 ml/kg).

CYP epoxygenase = experiment: Renal microsomal arachidonic acid metabolism, CYP epoxygenase activity; format: biochemical, rat; settings: concentrations up to 25 μM
Experimental: Renal microsomal arachidonic acid metabolism. Microsomes, cytosol, and S9 fractions were prepared from the renal cortex or outer medulla samples from a single animal as described previously (Kroetz, D. L. et al. Mol Pharmacol 52, 362-372 (1997), Su, P. et al. Am J Physiol 275, […]-438 (1998)). Reaction conditions for the in vitro determination of arachidonic acid epoxygenase activity, metabolite extraction and HPLC analysis were described in detail elsewhere (Su, P. et al. Am J Physiol 275, […]-438 (1998)).

CYP ω-hydroxylase = experiment: Renal microsomal arachidonic acid metabolism, ω-hydroxylase activity; format: biochemical, rat; settings: concentrations up to 25 μM
[3] = system: 14,15-EET hydrolysis in vivo (sEH), SHR; experiment: Urinary DHET and EET excretion in SHR (GC-MS); parameters: species or system rat; settings: 3 mg/kg i.p. daily, 24 hr urine after third dose, vehicle 2020
WKY rats = experiment: Systolic blood pressure by tail cuff in WKY rats; format: in vivo, rat; settings: single 3 mg/kg dose
Source text: Animals. Male SHR and WKY rats 3-13 wks of age were purchased from Charles River Laboratories (Wilmington, Mass.) and housed in a controlled environment with 12 hr light/dark cycles and fed standard laboratory chow for □ 3 days before euthanasia. All animal use was approved by the University of California San Francisco Committee on Animal Research and followed the National Institutes of Health guidelines for the care and use of laboratory animals. For isolation of kidney subcellular fractions, rats were anesthetized with methoxyflurane, the abdominal cavities were opened, and the kidneys were perfused with ice-cold saline. Perfused kidneys were rapidly removed, the cortex and medulla dissected out and immersed in liquid nitrogen. All tissue was stored at −80° C. until preparation of microsomes. In some cases WKY and SHR rats were housed in metabolic cages for up to three days and urine was collected over triphenylphosphine in 24 hr intervals. The urine volume was noted and aliquots were stored at −80° C. prior to extraction and quantitation of DHETs and EETs. […] Systolic blood pressure was measured at room temperature by a photoelectric tail cuff system (Model 179, IITC, Inc., Woodland Hills, Calif.) for up to four days following the dose of inhibitor. Blood pressures are reported as the average of three separate readings over a 30 min period. […]

[4] = system: insect cell culture expressing rat mEH; experiment: Toxicity of epoxide-containing xenobiotics in insect cell culture expressing rat mEH; format: cell-based
Source text: The micosomal enzyme play a significant role in the metabolism of xenobiotics such as polyaromatic toxicants. Additionally, polymorphism studies have underlined a potential role of this enzyme in relation to several diseases, such as emphysema, spontaneous abortion and several forms of cancer. Inhibition of recombinant rat and human mEH can be obtained using primary ureas, amides, and amines. […].

[5] = Table 2, MsEH […], read-out: Mouse sEH IC50
[6] = Table 1, MsEH […], read-out: Mouse sEH IC50
[7] = Table 1, HsEH 0.2 μM (text b16: […])
[8] = unpublished data, C. Morisseau and B. Hammock, 2000, read-out: IC50 with mouse sEH

| Compound | IC50 [1, 5] [µM] | IC50 (Human sEH (HsEH); Table 2, HsEH […]) [µM] | other results |
| --- | --- | --- | --- |
| COC(c1ccccc1)C1OC1c1ccccc1 (racemic) [C6H5 / C6H5 / CH—OCH3 / ±] | 103 ± 5 | 34 ± 1 |  |
| Cc1ccc(C(=O)C2OC2c2ccc(-c3ccccc3)cc2)cc1 (racemic) [4-C6H5—C6H4 / 4-CH3—C6H4 / C═O / ±] | 0.1 ± 0.01 | 0.19 ± 0.03 |  |
| O=C(Nc1ccc(Cl)c(Cl)c1)Nc1ccc(Cl)c(Cl)c1 [Compound 299] |  |  | IC50 [1, 6]: 0.7 ± 0.1 µM |
| OC(c1ccccc1)C1OC1c1ccc(F)cc1 (racemic) [4-F-C6H4 / C6H5 / CH—OH / ±] | 72 ± 16 | 18 ± 2 |  |
| O=C(Nc1ccc(O)cc1)NC1CCCCC1 [Compound 128] |  |  | IC50 [1, 6]: 0.79 ± 0.08 µM; IC50 (Human sEH (HsEH); [7]): 11.1 ± 0.8 µM |
| OC(c1ccccc1)C1OC1c1ccc(-c2ccccc2)cc1 (racemic) [4-C6H5—C6H4 / C6H5 / CH—OH / ±] | 0.51 ± 0.04 | 0.72 ± 0.03 |  |
| O=C(Nc1ccc(Cl)cc1)NC1CCCCC1 [Compound 20] |  |  | IC50 [1, 6]: 0.19 ± 0.02 µM; IC50 (Human sEH (HsEH); [7]): 0.4 ± 0.05 µM |
| CC(=O)C1OC1c1ccc([N+](=O)[O-])cc1 (racemic) [4-NO2—C6H4 / CH3 / C═O / ±] | 163 ± 11 | 269 ± 5 |  |
| CCNC(=O)NC1CCCCC1 [N-cyclohexyl-N′-ethylurea] |  |  | effect on blood pressure in the SHR [2]: no effect; IC50 [1, 8]: 51.7 ± 0.7 µM |
| O=C(NC1CCCCC1)NC1CCCCC1 [DCU, N,N′-dicyclohexylurea] |  |  | effect on animal death induced by leukotoxin/isoleukotoxin (Swiss Webster mice): either blocked the animal death induced by leukotoxin/isoleukotoxin or lengthened the lives of the mice; decrease in systolic blood pressure 6 hr after the dose ([2]; SHR): 22±4 mm Hg and 22 mm Hg; time by which blood pressure returned to baseline after the dose ([2]; SHR): ≤ 24 h; systolic blood pressure ([2]; SHR, three to five hr after the fourth daily 3 mg/kg dose, vehicle 128±5): 102±5 mm Hg; effect on CYP epoxygenase activity (CYP epoxygenase): no effect; effect on ω-hydroxylase activity (CYP ω-hydroxylase): no effect; excretion of total epoxygenase-derived products (EETs and DHETs) [3]: 1237 pg/mg creatinine; effect on blood pressure in the WKY (WKY rats): no effect; also recorded: unaffected |
| CCCCCCCCCCCCNC(=O)CC1CCCCC1 [Compound 514] |  |  | IC50 [1, 6]: 0.27 ± 0.01 µM |
| O=[N+]([O-])c1ccc(C2OC2CO)cc1 (stereo not drawn) [4-NO2—C6H4 / H / CH—OH / R,R] | 1200 ± 25 |  |  |
| O=[N+]([O-])c1ccc(C2OC2CO)cc1 (stereo not drawn) [4-NO2—C6H4 / H / CH—OH / S,S] | 1.6 ± 0.6 |  |  |
| CC(O)C1OC1c1ccc([N+](=O)[O-])cc1 (racemic) [4-NO2—C6H4 / CH3 / CH—OH / ±] | 6.5 ± 0.2 | 39 ± 1 |  |
| O=[N+]([O-])c1ccc(C2OC2CO)cc1 (racemic) [4-NO2—C6H4 / H / CH—OH / ±] | 5 ± 1 |  |  |
| CCCCCCCCCCCCN [dodecylamine, reference compound] |  |  | effect on blood pressure in the SHR [2]: no effect |
| CCCCCCCC/C=C/CCCCCCCC(N)=O [elaidamide] |  |  | effect on toxicity of epoxide-containing xenobiotics [4]: enhances the toxicity effects of epoxide-containing xenobiotics |
| CCCCCCCCCCCCNC(=O)NC1CCCCC1 [Compound 297] |  |  | IC50 [1, 6]: 0.05 ± 0.01 µM |
| [O-][S+](c1ccccc1)C1OC1c1ccc(-c2ccccc2)cc1 (racemic) [4-C6H5—C6H4 / C6H5 / S═O / ±] | 73 ± 5 | 70 ± 3 |  |
| O=C(c1ccccc1)C1OC1c1ccc(F)cc1 (racemic) [4-F-C6H4 / C6H5 / C═O / ±] | 1.3 ± 0.3 | 0.3 ± 0.1 |  |
| OC(c1ccccc1)C1OC1c1ccccc1 (racemic) [C6H5 / C6H5 / CH—OH / ±] | 12.6 ± 0.9 | 22 ± 2 |  |
| O=C(c1ccccc1)C1OC1c1ccc(-c2c(F)c(F)c(F)c(F)c2F)cc1 (racemic) [4-C6F5—C6H4 / C6H5 / C═O / ±] | 0.14 ± 0.01 | 0.2 ± 0.01 |  |
| COC(c1ccccc1)C1OC1c1ccc(-c2ccccc2)cc1 (racemic) [4-C6H5—C6H4 / C6H5 / CH—OCH3 / ±] | 0.48 ± 0.05 | 1.36 ± 0.07 |  |
| CCCCCCCCNC(=O)NCCC [Compound 429] |  |  | IC50 [1, 6]: 0.38 ± 0.04 µM; IC50 (Human sEH (HsEH); [7]): 1.7 ± 0.4 µM |
| CC(C)(C)CC(C)(C)NC(=O)NC1CCCCC1 [Compound 347] |  |  | IC50 [1, 6]: 0.07 ± 0.01 µM; IC50 (Human sEH (HsEH); [7]): 3.1 ± 0.07 µM |
| ON=C(c1ccccc1)C1OC1c1ccc(-c2ccccc2)cc1 (racemic) [4-C6H5—C6H4 / C6H5 / C═NOH / ±] | 42 ± 3 | 35 ± 1 |  |
| Cc1ccc(C(O)C2OC2c2ccc(-c3ccccc3)cc2)cc1 (racemic) [4-C6H5—C6H4 / 4-CH3—C6H4 / CH—OH / ±] | 0.09 ± 0.01 | 0.15 ± 0.02 |  |
| CCCCCCCCCCCCNC(=O)NC1CCCCC1 [N-cyclohexyl-N′-dodecylurea] |  |  | decrease in systolic blood pressure 6 hr after the dose ([2]; SHR): 12±2 mm Hg and 12 mm Hg; time by which blood pressure returned to baseline after the dose ([2]; SHR): ≤ 24 h; IC50 [1, 8]: 0.05 ± 0.01 µM |

Now from value to compound, other results behind:

| IC50 [1, 5] [µM] | IC50 (Human sEH (HsEH); Table 2, HsEH […]) [µM] | Compound | other results |
| --- | --- | --- | --- |
| 3.5 ± 0.5 | 0.29 ± 0.01 | ON=C(c1ccccc1)C1OC1c1ccccc1 (racemic) [C6H5 / C6H5 / C═NOH / ±] |  |
| 2.9 ± 0.3 | 0.3 ± 0.1 | O=C(c1ccccc1)C1OC1c1ccccc1 (racemic) [C6H5 / C6H5 / C═O / ±] |  |
| 2400 ± 46 |  | OCC1OC1c1ccccc1 (stereo not drawn) [C6H5 / H / CH—OH / S,S] |  |
| 2.3 ± 0.4 | 0.31 ± 0.02 | [O-][S+](c1ccccc1)C1OC1c1ccccc1 (racemic) [C6H5 / C6H5 / S—O / ±] |  |
| 1100 ± 23 |  | OCC1OC1c1ccccc1 (stereo not drawn) [C6H5 / H / CH—OH / R,R] |  |

— patent US8815951B2, “Inhibitors of epoxide hydrolases for the treatment of inflammation” (The Regents of the University of California, priority 1996, dated 2014)
